The target of experiment [1] is T1, TLR8 (Homo sapiens, UniProt Q9NR97).
T1 construct: host or cells: HEK-Blue cells (human HEK) co-expressing TLR8 and an NF-kB/AP1-inducible SEAP reporter
T1 sequence (Q9NR97 27-1041): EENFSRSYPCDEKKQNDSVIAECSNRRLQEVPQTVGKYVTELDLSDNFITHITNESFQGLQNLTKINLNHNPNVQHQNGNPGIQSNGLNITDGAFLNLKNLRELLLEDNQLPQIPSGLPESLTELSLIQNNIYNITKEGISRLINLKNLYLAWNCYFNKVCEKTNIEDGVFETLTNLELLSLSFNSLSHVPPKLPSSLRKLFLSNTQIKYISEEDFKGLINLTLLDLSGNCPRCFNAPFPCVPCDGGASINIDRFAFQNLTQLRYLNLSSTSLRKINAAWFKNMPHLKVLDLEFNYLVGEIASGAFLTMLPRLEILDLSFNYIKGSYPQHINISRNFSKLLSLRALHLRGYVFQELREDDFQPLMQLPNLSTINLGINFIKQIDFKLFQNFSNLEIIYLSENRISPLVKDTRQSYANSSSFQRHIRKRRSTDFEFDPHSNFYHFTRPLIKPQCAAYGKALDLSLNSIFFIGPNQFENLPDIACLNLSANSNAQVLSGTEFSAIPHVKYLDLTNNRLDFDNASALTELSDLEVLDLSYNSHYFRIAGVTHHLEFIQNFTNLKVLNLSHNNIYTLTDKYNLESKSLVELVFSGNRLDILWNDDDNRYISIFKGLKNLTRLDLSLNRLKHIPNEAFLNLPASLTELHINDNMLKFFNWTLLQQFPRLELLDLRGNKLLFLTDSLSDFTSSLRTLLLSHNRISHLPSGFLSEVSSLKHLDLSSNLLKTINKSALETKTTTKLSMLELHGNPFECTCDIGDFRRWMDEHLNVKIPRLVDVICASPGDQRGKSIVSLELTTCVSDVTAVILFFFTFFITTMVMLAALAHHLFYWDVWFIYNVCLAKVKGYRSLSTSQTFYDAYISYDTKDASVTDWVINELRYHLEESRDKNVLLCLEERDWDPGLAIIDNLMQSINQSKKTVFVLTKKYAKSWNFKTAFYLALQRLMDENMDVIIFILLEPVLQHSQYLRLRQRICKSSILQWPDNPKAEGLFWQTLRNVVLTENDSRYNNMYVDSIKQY
Briefly: In vitro human TLR8 binding reporter assay (HEK-Blue, NF-kB/AP1-inducible SEAP). Format: cell-based. The following applies: activity range symbols. The procedure, abridged:
(§1)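 Reporter cells are plated at 15,000 per well and rested 24 h. Next day, test compounds or DMSO are dispensed, followed by 18 h incubation at 37 °C, 5% CO2.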

For experiment [2], the target named is T2, TLR7 (Homo sapiens, UniProt Q9NYK1).
T2 construct: host or cells: HEK-Blue cells (human HEK) co-expressing TLR7 and an NF-kB/AP1-inducible SEAP reporter
T2 sequence (Q9NYK1 27-1049): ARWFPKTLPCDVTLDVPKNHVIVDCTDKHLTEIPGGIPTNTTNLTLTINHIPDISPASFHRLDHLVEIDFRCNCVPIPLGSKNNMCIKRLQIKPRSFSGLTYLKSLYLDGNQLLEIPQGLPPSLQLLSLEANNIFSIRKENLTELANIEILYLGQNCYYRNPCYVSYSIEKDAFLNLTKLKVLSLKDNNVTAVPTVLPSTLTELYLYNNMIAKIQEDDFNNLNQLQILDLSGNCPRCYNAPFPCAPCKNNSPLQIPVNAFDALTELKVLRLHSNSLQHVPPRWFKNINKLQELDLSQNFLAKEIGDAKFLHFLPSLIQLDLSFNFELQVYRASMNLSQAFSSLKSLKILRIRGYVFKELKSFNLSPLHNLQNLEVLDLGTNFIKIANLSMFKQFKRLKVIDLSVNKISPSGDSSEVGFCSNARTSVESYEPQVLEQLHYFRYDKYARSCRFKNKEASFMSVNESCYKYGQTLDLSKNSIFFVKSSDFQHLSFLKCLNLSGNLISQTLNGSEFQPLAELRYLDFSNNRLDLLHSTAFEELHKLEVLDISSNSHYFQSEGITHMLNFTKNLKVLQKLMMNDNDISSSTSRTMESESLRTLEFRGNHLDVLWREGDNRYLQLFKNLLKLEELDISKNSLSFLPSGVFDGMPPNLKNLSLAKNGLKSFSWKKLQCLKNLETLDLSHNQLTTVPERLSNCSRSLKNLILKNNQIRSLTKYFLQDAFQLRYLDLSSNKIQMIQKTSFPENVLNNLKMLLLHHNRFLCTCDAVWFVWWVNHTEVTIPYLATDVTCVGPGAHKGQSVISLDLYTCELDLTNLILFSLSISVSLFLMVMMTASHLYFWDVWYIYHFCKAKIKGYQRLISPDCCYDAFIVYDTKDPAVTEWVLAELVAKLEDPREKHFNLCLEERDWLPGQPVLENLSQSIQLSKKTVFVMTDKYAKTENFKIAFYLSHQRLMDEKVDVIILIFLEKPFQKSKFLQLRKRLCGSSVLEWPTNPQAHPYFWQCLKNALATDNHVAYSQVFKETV
Briefly: In vitro human TLR7 binding reporter assay (HEK-Blue, NF-kB/AP1-inducible SEAP). It counts as cell-based. The following applies: activity range symbols. The procedure, abridged: as §1
A general note: Reporter assays use an easily measured gene product as a stand-in for the process of interest.

Where a name gives a salt, the structure may show the parent alone.

Turning to `CCNCc1nc2c(N)nc3cc(-c4cc[nH]n4)ccc3c2[nH]1` [Compound 101, 2-[(Ethylamino)methyl]-7-(1H-pyrazol-3-yl)-1H-imidazo[4,5-c]quinolin-4-amine hydrochloride], the EC50 in experiment [1] and in experiment [2] was over 100 µM each time.

Consider `CC(=O)N(C)Cc1nc2c(N)nc3cc(-n4cccn4)ccc3c2[nH]1` [Compound 102, N-((4-Amino-7-(1H-pyrazol-1-yl)-1H-imidazo[4,5-c]quinolin-2-yl)methyl)-N-methylacetamide], for which the EC50 in experiment [1] and in experiment [2] was over 100 µM in each case.

With `CN(Cc1nc2c(N)nc3cc(-n4cccn4)ccc3c2[nH]1)S(C)(=O)=O` [Compound 119], the EC50 in experiment [1] and in experiment [2] was over 100 µM throughout.

As to `CN(Cc1nc2c(N)nc3cc(-c4cc[nH]n4)ccc3c2[nH]1)C(=O)C1CC1` [Compound 120], the EC50 in experiment [1] and in experiment [2] was over 100 µM each time.

As to `CCN(Cc1nc2c(N)nc3cc(-c4cc[nH]n4)ccc3c2n1C)C(C)=O` [Compound 121], the half-maximal effective concentration (EC50) in experiment [1] and in experiment [2] was over 100 µM in each case.

On to `CCC(=O)N(C)Cc1nc2c(N)nc3cc(-c4cc[nH]n4)ccc3c2[nH]1` [Compound 122], for which the concentration giving a half-maximal response (EC50) in experiment [1] and in experiment [2] was over 100 µM throughout.

Turning to `CCN(Cc1nc2c(N)nc3cc(-c4cc[nH]n4)ccc3c2[nH]1)S(C)(=O)=O` [Compound 124], the EC50 in experiment [1] and in experiment [2] was over 100 µM each time.

As for `CCC(=O)N(CC)Cc1nc2c(N)nc3cc(-c4cc[nH]n4)ccc3c2[nH]1` [Compound 125], the half-maximal effective concentration (EC50) in experiment [1] and in experiment [2] was over 100 µM each time.

With `CCN(Cc1nc2c(N)nc3cc(-c4cc[nH]n4)ccc3c2[nH]1)C(=O)NC` [Compound 128], the EC50 in experiment [1] and in experiment [2] was over 100 µM throughout.

Regarding `CC(=O)N(C)Cc1nc2c(N)nc3cc(-c4cc[nH]n4)ccc3c2[nH]1` [Compound 129], the EC50 in experiment [1] and in experiment [2] was over 100 µM throughout.

As to `CCN(Cc1nc2c(N)nc3cc(-n4cccn4)ccc3c2[nH]1)C(N)=O` [Compound 130], the concentration for a half-maximal effect (EC50) in experiment [1] and in experiment [2] was over 100 µM throughout.

In the case of `NCc1nc2c(N)nc3cc(-c4cc[nH]n4)ccc3c2[nH]1` [Compound 131], the concentration for a half-maximal effect (EC50) in experiment [1] and in experiment [2] was over 100 µM in each case.

As to `CCN(Cc1nc2c(N)nc3cc(-n4nccn4)ccc3c2[nH]1)C(C)=O` [Compound 132], the EC50 in experiment [1] and in experiment [2] was over 100 µM in each case.

Turning to `CC(c1nc2c(N)nc3cc(-c4cccnc4)ccc3c2[nH]1)N1CCCC1=O` (centres unmarked) [Compound 138], the concentration for a half-maximal effect (EC50) (usually the concentration giving half of the maximal effect) was over 100 µM in experiment [1] and 20 to 100 µM in experiment [2].

Turning to `CC(=O)N(Cc1nc2c(N)nc3cc(-c4cc[nH]n4)ccc3c2[nH]1)C(C)C` [Compound 140], the EC50 in experiment [1] and in experiment [2] was over 100 µM in each case.

`Nc1nc2ccc(Cl)cc2c2[nH]c(CN3CCCC3=O)nc12` [Compound 141]: the EC50 in experiment [1] and in experiment [2] was over 100 µM in each case.

Take `CC(C)(C)OC(=O)NCc1nc2c(N)nc3cc(-c4cc[nH]n4)ccc3c2[nH]1` [Compound 142]: the half-maximal effective concentration (EC50) in experiment [1] and in experiment [2] was over 100 µM each time.

As for `Nc1nc2cc(Cl)ccc2c2[nH]c(CN3CCCC3=O)nc12` [Compound 143], the concentration giving a half-maximal response (EC50) in experiment [1] is over 100 µM; in experiment [2], 20 to 100 µM.

Take `Nc1nc2cc(-c3ccc(Cl)nc3)ccc2c2[nH]c(CN3CCCC3=O)nc12` [Compound 153]: the concentration giving a half-maximal response (EC50) in experiment [1] is over 100 µM; in experiment [2] it was 20 to 100 µM.

As to `CCNCc1nc2c(N)nc3cc(OC)ccc3c2[nH]1` [Compound 154], the 50% effective concentration (EC50) in experiment [1] was 20 to 100 µM; in experiment [2], over 100 µM.

In the case of `CCN(Cc1nc2c(N)nc3cc(-c4ncc[nH]4)ccc3c2[nH]1)C(=O)OC(C)(C)C` [Compound 155], the concentration for a half-maximal effect (EC50) in experiment [1] and in experiment [2] was over 100 µM throughout.

As for `Nc1nc2cc(-n3ncc4ccccc43)ccc2c2[nH]c(CN3CCCC3=O)nc12` [Compound 157], the EC50 in experiment [1] and in experiment [2] was 20 to 100 µM throughout.

Regarding `CCN(Cc1nc2c(N)nc3cc(OC)ccc3c2[nH]1)C(C)=O` [Compound 158, N-((4-Amino-7-methoxy-1H-imidazo[4,5-c]quinolin-2-yl)methyl)-N-ethylacetamide], the half-maximal effective concentration (EC50) in experiment [1] and in experiment [2] was over 100 µM in each case.

As for `CCN(Cc1nc2c(N)nc3cc(Cl)c(Cl)cc3c2[nH]1)C(C)=O` [Compound 159], the EC50 in experiment [1] and in experiment [2] was over 100 µM throughout.

With `CCNCc1nc2c(N)nc3cc(-c4ncc[nH]4)ccc3c2[nH]1` [Compound 162], the EC50 in experiment [1] and in experiment [2] was over 100 µM throughout.

As to `CCN(Cc1nc2c(N)nc3cc(-c4cc[nH]n4)ccc3c2[nH]1)CC(C)C` [Compound 453, 2-{[ethyl(2-methylpropyl)amino]methyl}-7-(1H-pyrazol-3-yl)-1H-imidazo[4,5-c]quinolin-4-amine], the EC50 in experiment [1] and in experiment [2] was over 100 µM in each case.

As to `CCN(CC)C(=O)N(CC)Cc1nc2c(N)nc3cc(-c4cc[nH]n4)ccc3c2[nH]1` [Compound 454, 1-{[4-amino-7-(1H-pyrazol-3-yl)-1H-imidazo[4,5-c]quinolin-2-yl]methyl}-1,3,3-triethylurea], the EC50 in experiment [1] and in experiment [2] was over 100 µM throughout.

As for `CCN(Cc1nc2c(N)nc3cc(-c4cc[nH]n4)ccc3c2[nH]1)C(=O)N1CCOCC1` [Compound 455, N-{[4-amino-7-(1H-pyrazol-3-yl)-1H-imidazo[4,5-c]quinolin-2-yl]methyl}-N-ethylmorpholine-4-carboxamide], the EC50 in experiment [1] and in experiment [2] was over 100 µM in each case.

For the compound `CCN(Cc1nc2c(N)nc3cc(-c4cc[nH]n4)ccc3c2[nH]1)C(=O)NC(C)(C)C` [Compound 456, 1-{[4-amino-7-(1H-pyrazol-3-yl)-1H-imidazo[4,5-c]quinolin-2-yl]methyl}-3-tert-butyl-1-ethylurea], the EC50 in experiment [1] and in experiment [2] was over 100 µM in each case.

Regarding `CCNC(=O)N(CC)Cc1nc2c(N)nc3cc(-c4cc[nH]n4)ccc3c2[nH]1` [Compound 457, 1-{[4-amino-7-(1H-pyrazol-3-yl)-1H-imidazo[4,5-c]quinolin-2-yl]methyl}-1,3-diethylurea], the EC50 in experiment [1] and in experiment [2] was over 100 µM throughout.

Regarding `CCN(Cc1nc2c(N)nc3cc(-c4cc[nH]n4)ccc3c2[nH]1)S(=O)(=O)N(C)C` [Compound 458, 2-{[(dimethylsulfamoyl)(ethyl)amino]methyl}-7-(1H-pyrazol-3-yl)-1H-imidazo[4,5-c]quinolin-4-amine], the 50% effective concentration (EC50) in experiment [1] and in experiment [2] was over 100 µM each time.

The record behind these values is US12351580B2, “NLRP3 modulators” (Innate Tumor Immunity, Inc., priority 2017, dated 2025).
